{"source": "patent US7662997B2", "about": "“Synthesis and applications of 2-oxo-4-methylthiobutyric acid, its salts and its derivatives” (Adisseo Ireland Limited, priority 2004, dated 2010)", "details": "chicken; for Cl D7-D21 Delta (%) / Consumption D7-D21 Delta (%) / Weight gain D7-D21 Delta (%): relative to control R1", "description": "The starting product is a food base that is deficient in methionine, methionine being the nutritional element for which it is desired to observe a response, and the said nutritional element that is lacking is then introduced in the reference forms and in the test form, and then the performance levels obtained in each of the systems are compared, system R1 corresponding to no introduction of methionine.\nTwo chickens per cage are tested, with controlled randomization by chance.\nSeven treatments were carried out:\nR1: without added methionine,\nR2 and R3: +Rhodimet™ NP99 (D,L-methionine powder sold by the applicant) at two different doses,\nR4 and R5: +Rhodimet™ AT88, at two different doses\nR6 and R7: +KMB, at two different doses.\nThey were each repeated 14 times and are represented in Table 3 below.\nZootechnical performance levels as a function of treatments (period 7-21 days)\nThe smaller the number of grams required to obtain one gram of weight gain, the greater the efficiency of the product, as illustrated in the FIGURE.\nThe ratio of KMB efficiency to DL-methionine efficiency is then calculated by calculating the ratio of the conversion efficiency values calculated at the two doses used.", "key": {"[1]": {"details": "addition of 0.1% of methionine, 7-21 days, versus control"}, "[2]": {"details": "higher dose (NP99 0.200%, AT88 0.225%, KMB 0.204%)"}, "[3]": {"details": "higher dose (R3 NP99 0.200%, R5 AT88 0.225%, R7 KMB 0.204%)"}, "[4]": {"details": "lower dose (NP99 0.100%, AT88 0.113%, KMB 0.102%)"}, "[5]": {"details": "lower dose (R2 NP99 0.100%, R4 AT88 0.113%, R6 KMB 0.102%)"}}, "note": "Where two headings read alike, the source gives them in different places."}
{"smiles": "CSCCC(N)C(=O)O", "note": "(racemic) [Rhodimet™ NP99, D,L-methionine]", "values": [{"measurement": "decrease of the consumption index", "setting": "[1]", "value": "−11", "unit": "%"}, {"measurement": "increase of the weight gain", "setting": "[1]", "value": 90, "unit": "g"}, {"measurement": "Cl D7-D21 Delta (%)", "setting": "[2]", "value": "−9.2", "unit": "%"}, {"measurement": "Consumption D7-D21 Delta (%)", "setting": "[2]", "value": 5.5, "unit": "%"}, {"measurement": "Weight gain D7-D21 Delta (%)", "setting": "[2]", "value": 16.2, "unit": "%"}, {"measurement": "Consumption D7-D21 (g) Means", "setting": "[3]", "value": 823, "unit": "g"}, {"measurement": "Mortality D7-D21", "setting": "[3]", "value": 0.0, "unit": "%"}, {"measurement": "Weight gain D7-D21 (g) Means", "setting": "[3]", "value": 527, "unit": "b g"}, {"measurement": "Cl D7-D21 Delta (%)", "setting": "[4]", "value": "−11.1", "unit": "%"}, {"measurement": "Consumption D7-D21 Delta (%)", "setting": "[4]", "value": 6.7, "unit": "%"}, {"measurement": "Weight gain D7-D21 Delta (%)", "setting": "[4]", "value": 19.8, "unit": "%"}, {"measurement": "Consumption D7-D21 (g) Means", "setting": "[5]", "value": 832, "unit": "g"}, {"measurement": "Mortality D7-D21", "setting": "[5]", "value": 0.0, "unit": "%"}, {"measurement": "Weight gain D7-D21 (g) Means", "setting": "[5]", "value": 544, "unit": "b g"}]}
